From patent publication US20130190345A1, “MATRINIC ACID/MATRINE DERIVATIVES AND PREPARATION METHODS AND USES THEREOF” (priority 2010, published 2013)
Converted amounts (≈) assume the structure as drawn.

Key:
Type in all cases: cell-based
Hsc70 [1] = assay: Inhibition effects of compound on Hsc70 in Huh7.5 cultured cell (qRT-PCR, Western blotting); design: key to Hsc70 down-regulation rate (%): “—” represents no significant inhibition rate
Experimental: 2×10^5/ml Huh7.5 cells (purchased from Vertex Pharmaceutical Co., USA) were inoculated in an amount of 3 ml on 6-well culture plate, placed in an incubator with 37° C., 5% CO2 content, saturation humidity, and cultured for 24 h, added with different drug solutions (DM122) formulated with culture medium, and cell control was set. Cultivation was continuously performed in the incubator with 37° C., 5% CO2 content, saturation humidity for 24 h, a kit for RNA extraction was used to extract intracellular RNA from the cells, and one-step qRT-PCR was used to determine intracellular contents of Hsc70 and GAPDHRNA. After the cultivation of cells was performed for 48 h, the cells were digested and harvested, then the cells were split with CytoBuster™ Protein Extraction Buffer that contained many kinds of protease inhibitors, total intracellular proteins were extracted, and Western blotting was used to analyze the contents of Hsc70 and GAPDH proteins. In comparison with the cell control, the inhibition effects on Hsc70 upon action of different drugs were analyzed.

HCV = assay: Inhibition effects of compounds on HCV in Huh7.5 cultured cell after HCV infection; details: for EC50 (half effective concentration): virus not given, stands beside HCV inhibition rate
Experimental: 1×10^5/ml Huh7.5 cells (purchased from Vertex Pharmaceutical Co., USA) were inoculated in an amount of 0.1 ml on 96-well culture plate, placed in an incubator with 37° C., 5% CO2 content and saturation humidity, and cultured for 24 h, HCV virus in 45 IU/cell was used to infect Huh7.5, different drug solutions (DM122) formulated with culture medium were added, and cell control and HCV infection control were set. Cultivation was continuously performed in the incubator with 37° C., 5% CO2 content and saturation humidity for 72 h, kit for RNA extraction was used to extract intracellular RNA, one-step qRT-PCR was used to determine intracellular contents of HCV and GAPDH RNA, and the inhibition effects of drug on HCV infection was analyzed. […] In comparison with the virus control group, the inhibition effects on HCV infection upon action of different drugs were analyzed. […] This experiment was repeated for 3 times, * indicated […] in comparison with control, ** indicated p<0.01 in comparison with control.

2.2.15 cells = assay: Drug TC50 by MTT detection; details: Reed-Muench
Experimental: 2.2.15 cells (all cells were purchased from Vertex Pharmaceutical Co., USA) in exponential growth phase were inoculated on 96-well culture plate, 2×10^5 cells/well, added with culture media containing PFA diluted in different concentration rates, 3 wells for each diluted concentration, placed in 37° C. CO2—containing incubator and cultivated for 48 h; the supernatant was discarded, 100 μl of MTT (0.5 mg/ml) in culture medium was added, cultivation was continuously performed at 37° C. for 4 h; each well was added to 100 μl of 50% DMF-20% SDS destaining solution, stood at 37° C. overnight; ELISA was used to measure optical density at wavelength of 570 nm (0D570).
In each experiment, 3 cell control wells and 3 blank controls well were set, the results were used in formula, (cell control OD570-drug-medicated cell OD570)/cell control OD570, to calculate cell death rate (%), and Reed-Muench method was used to calculate half toxic concentration TC50.

Hsc70 [2] = assay: Detection of Hsc70 gene expression level upon action of compound on 2.2.15 cells (real-time fluorescent quantified PCR); design: Hsc70 mRNA / Hsc70 down-regulation rate (%): unit not given here; details: for Hsc70 inhibition rate (down-regulation of Hsc70 expression activity, expressed in relative OMT ratio): 2.2.15 cells, relative to OMT (= 1); for Hsc70 down-regulation rate (%): single value, concentration not given, values coincide with Table 1 relative OMT ratios
Experimental: 2.2.15 cells (purchased from Vertex Pharmaceutical Co., USA) in a number of 1×10^6 were inocubated to 6-well plate, cultured in a culture medium containing 10% fetal calf serum for 24 hr, the original culture medium was discarded, replaced with a culutre medium containing 400 μg/ml OMTR, which was used as control. Compounds were firstly dissolved in MEM to form 20 mg/ml mother liquid, which was diluted with culture medium when used and then applied to cells. The compounds of Examples 1-114 were separately used for treatment for 12, 24, 36 hr, then cells were harvested for extraction of RNA and DNA, then the changes of Hsc70 mRNA and HBV DNA were detected by real-time fluorescent quantified PCR.

Cc1ccc(C(=O)N2CC3CCCN4CCCC(C34)C2CCCC(=O)O)cc1 [Compound L7, (5R)—N-(p-methylbenzoyl)matrinic acid]
Hsc70 down-regulation rate (%) (Hsc70 [1]; 200 ug/ml (upper data)): 63.3 ± 1.2%
Hsc70 down-regulation rate (%) (Hsc70 [1]; 400 ug/ml (lower data)): —
HCV inhibition rate (%) (HCV; 200 ug/ml (upper data)): 89.5 ± 2.0%
HCV inhibition rate (%) (HCV; 400 ug/ml (lower data)): 95.7 ± 1.1%
EC50 (half effective concentration) (HCV): 291.73 µg/mL (≈ 759 µM)
CC50 (concentration to cause poisoning in half cells) (2.2.15 cells): >1000 µg/mL

COc1ccc(S(=O)(=O)N2CC3CCCN4CCCC(C34)C2CCCC(=O)O)cc1 (stereo not drawn) [DM-103, N-(4-methoxybenzenesulfonyl) matrinic acid]
Hsc70 down-regulation rate (%) (Hsc70 [1]; 200 ug/ml (upper data)): 74.8 ± 5.6%
Hsc70 down-regulation rate (%) (Hsc70 [1]; 400 ug/ml (lower data)): —
HCV inhibition rate (%) (HCV; 200 ug/ml (upper data)): 69.1 ± 14.5%
HCV inhibition rate (%) (HCV; 400 ug/ml (lower data)): 91.4 ± 1.8%
EC50 (half effective concentration) (HCV): 135.71 µg/mL (≈ 311 µM)
CC50 (concentration to cause poisoning in half cells) (2.2.15 cells): >1000 µg/mL

O=C(O)CCC[C@@H]1[C@H]2CCCN3CCC[C@@H](CN1Cc1ccc([N+](=O)[O-])cc1)[C@@H]23 [DM-123, N-(4-nitrobenzyl) matrinic acid]
Hsc70 inhibition rate (down-regulation of Hsc70 expression activity, expressed in relative OMT ratio) (Hsc70 [2]): −1.6
Hsc70 down-regulation rate (%) (Hsc70 [1]; 200 ug/ml (upper data)): 65.9 ± 6.9%
Hsc70 down-regulation rate (%) (Hsc70 [1]; 400 ug/ml (lower data)): 70.5 ± 2.3%
HCV inhibition rate (%) (HCV; 200 ug/ml (upper data)): 74.0 ± 7.8%
HCV inhibition rate (%) (HCV; 400 ug/ml (lower data)): 81.1 ± 6.6%
EC50 (half effective concentration) (HCV): 104.61 µg/mL (≈ 261 µM)
CC50 (concentration to cause poisoning in half cells) (2.2.15 cells): 455.7 µg/mL (≈ 1130 µM)

O=C(O)CCC[C@@H]1[C@H]2CCCN3CCC[C@@H](CN1Cc1ccc(Cl)c(Cl)c1)[C@@H]23 [DM-127, N-(3,4-dichlorobenzyl) matrinic acid]
Hsc70 inhibition rate (down-regulation of Hsc70 expression activity, expressed in relative OMT ratio) (Hsc70 [2]): −2.92
Hsc70 down-regulation rate (%) (Hsc70 [2]): −2.92
EC50 (half effective concentration) (HCV): 113.64 µg/mL (≈ 267 µM)
CC50 (concentration to cause poisoning in half cells) (2.2.15 cells): 427.8 µg/mL (≈ 1010 µM)

O=C(O)CCCC1C2CCCN3CCCC(CN1Cc1ccc(Br)cc1)C23 (stereo not drawn) [DM-128, N-(4-bromobenzyl) matrinic acid]
Hsc70 inhibition rate (down-regulation of Hsc70 expression activity, expressed in relative OMT ratio) (Hsc70 [2]): −5.78
Hsc70 down-regulation rate (%) (Hsc70 [2]): −5.78
EC50 (half effective concentration) (HCV): 51.66 µg/mL (≈ 119 µM)
CC50 (concentration to cause poisoning in half cells) (2.2.15 cells): 535.1 µg/mL (≈ 1230 µM)

O=C(O)CCCC1C2CCCN3CCCC(CN1Cc1cccc(Cl)c1Cl)C23 (stereo not drawn) [DM-129, N-(2,3-dichlorobenzyl) matrinic acid]
Hsc70 inhibition rate (down-regulation of Hsc70 expression activity, expressed in relative OMT ratio) (Hsc70 [2]): 0.27
Hsc70 down-regulation rate (%) (Hsc70 [2]): 0.27
EC50 (half effective concentration) (HCV): 192.02 µg/mL (≈ 451 µM)
CC50 (concentration to cause poisoning in half cells) (2.2.15 cells): 245.5 µg/mL (≈ 577 µM)

Cc1ccc([N+](=O)[O-])cc1C(=O)N1C[C@@H]2CCCN3CCC[C@@H]([C@H]23)[C@H]1CCCC(=O)O [DM-131, N-(2-methyl-5-nitrobenzoyl) matrinic acid]
Hsc70 inhibition rate (down-regulation of Hsc70 expression activity, expressed in relative OMT ratio) (Hsc70 [2]): −0.86
Hsc70 down-regulation rate (%) (Hsc70 [2]): −0.86
EC50 (half effective concentration) (HCV): 89.31 µg/mL (≈ 208 µM)
CC50 (concentration to cause poisoning in half cells) (2.2.15 cells): >1000 µg/mL

O=C(O)CCCC1C2CCCN3CCCC(CN1Cc1ccc(F)cc1)C23 (stereo not drawn) [DM-132, N-(4-fluorobenzyl) matrinic acid]
Hsc70 inhibition rate (down-regulation of Hsc70 expression activity, expressed in relative OMT ratio) (Hsc70 [2]): 0.99
Hsc70 down-regulation rate (%) (Hsc70 [1]; 200 ug/ml (upper data)): 80.1 ± 5.7%
Hsc70 down-regulation rate (%) (Hsc70 [1]; 400 ug/ml (lower data)): 32.8 ± 26.8%
HCV inhibition rate (%) (HCV; 200 ug/ml (upper data)): 67.7 ± 5.8%
HCV inhibition rate (%) (HCV; 400 ug/ml (lower data)): 82.7 ± 5.6%
EC50 (half effective concentration) (HCV): 52.86 µg/mL (≈ 141 µM)
CC50 (concentration to cause poisoning in half cells) (2.2.15 cells): 903.2 µg/mL (≈ 2410 µM)

O=C(O)CCCC1C2CCCN3CCCC(CN1Cc1cccc(F)c1)C23 (stereo not drawn) [DM-133, N-(3-fluorobenzyl) matrinic acid]
Hsc70 inhibition rate (down-regulation of Hsc70 expression activity, expressed in relative OMT ratio) (Hsc70 [2]): 0.81
Hsc70 down-regulation rate (%) (Hsc70 [1]; 200 ug/ml (upper data)): —
Hsc70 down-regulation rate (%) (Hsc70 [1]; 400 ug/ml (lower data)): —
HCV inhibition rate (%) (HCV; 200 ug/ml (upper data)): 96.4 ± 0.8%
HCV inhibition rate (%) (HCV; 400 ug/ml (lower data)): 98.6 ± 0.8%
EC50 (half effective concentration) (HCV): 67.33 µg/mL (≈ 180 µM)
CC50 (concentration to cause poisoning in half cells) (2.2.15 cells): 527.8 µg/mL (≈ 1410 µM)

N#Cc1ccc(CN2C[C@@H]3CCCN4CCC[C@@H]([C@H]34)[C@H]2CCCC(=O)O)cc1 [DM-134, N-(4-cyanobenzyl) matrinic acid]
Hsc70 inhibition rate (down-regulation of Hsc70 expression activity, expressed in relative OMT ratio) (Hsc70 [2]): 0.57
Hsc70 down-regulation rate (%) (Hsc70 [2]): 0.57
EC50 (half effective concentration) (HCV): 52.18 µg/mL (≈ 137 µM)
CC50 (concentration to cause poisoning in half cells) (2.2.15 cells): >1000 µg/mL

O=C(O)CCC[C@@H]1[C@H]2CCCN3CCC[C@@H](CN1Cc1ccccc1F)[C@@H]23 [DM-135, N-(2-fluorobenzyl)matrinic acid]
Hsc70 inhibition rate (down-regulation of Hsc70 expression activity, expressed in relative OMT ratio) (Hsc70 [2]): 0.41
Hsc70 down-regulation rate (%) (Hsc70 [1]; 200 ug/ml (upper data)): 0.1 ± 5.6%
Hsc70 down-regulation rate (%) (Hsc70 [1]; 400 ug/ml (lower data)): —
HCV inhibition rate (%) (HCV; 200 ug/ml (upper data)): 74.3 ± 8.2%
HCV inhibition rate (%) (HCV; 400 ug/ml (lower data)): 90.5 ± 2.0%
EC50 (half effective concentration) (HCV): 29.86 µg/mL (≈ 79.7 µM)
CC50 (concentration to cause poisoning in half cells) (2.2.15 cells): 620.68 µg/mL (≈ 1660 µM)

O=C(O)CCCC1C2CCCN3CCCC(CN1Cc1ccccn1)C23 (stereo not drawn) [DM-143, N-(pyridin-2-yl) methyl matrinic acid]
Hsc70 inhibition rate (down-regulation of Hsc70 expression activity, expressed in relative OMT ratio) (Hsc70 [2]): 1.1
Hsc70 down-regulation rate (%) (Hsc70 [2]): 1.1
EC50 (half effective concentration) (HCV): 12.46 µg/mL (≈ 34.9 µM)
CC50 (concentration to cause poisoning in half cells) (2.2.15 cells): 374.5 µg/mL (≈ 1050 µM)

O=C(O)CCC[C@@H]1[C@H]2CCCN3CCC[C@@H](CN1Cc1cscn1)[C@@H]23 [DM-146, N-(thiazol-4-yl)methyl matrinic acid]
Hsc70 inhibition rate (down-regulation of Hsc70 expression activity, expressed in relative OMT ratio) (Hsc70 [2]): 0.92
Hsc70 down-regulation rate (%) (Hsc70 [2]): 0.92
EC50 (half effective concentration) (HCV): 63.99 µg/mL (≈ 176 µM)
CC50 (concentration to cause poisoning in half cells) (2.2.15 cells): >1000 µg/mL

O=C(O)CCC[C@@H]1[C@H]2CCCN3CCC[C@@H](CN1Cc1ccc(OC(F)(F)F)cc1)[C@@H]23 [DM-162, N-(4-trifluoromethoxybenzyl) matrinic acid]
Hsc70 down-regulation rate (%) (Hsc70 [1]; 200 ug/ml (upper data)): —
Hsc70 down-regulation rate (%) (Hsc70 [1]; 400 ug/ml (lower data)): —
HCV inhibition rate (%) (HCV; 200 ug/ml (upper data)): 96.2 ± 0.3%
HCV inhibition rate (%) (HCV; 400 ug/ml (lower data)): 99.1 ± 0.1%
EC50 (half effective concentration) (HCV): 34.06 µg/mL (≈ 77.3 µM)
CC50 (concentration to cause poisoning in half cells) (2.2.15 cells): 431.6 µg/mL (≈ 980 µM)

N-(4-ethenyl benzyl) matrinic acid [DM-136]
Hsc70 inhibition rate (down-regulation of Hsc70 expression activity, expressed in relative OMT ratio) (Hsc70 [2]): 0.76
Hsc70 down-regulation rate (%) (Hsc70 [2]): 0.76
EC50 (half effective concentration) (HCV): 1.80 µg/mL
CC50 (concentration to cause poisoning in half cells) (2.2.15 cells): 70.49 µg/mL
